In US8969375B2, “CDK9 kinase inhibitors” (AbbVie Inc., priority 2013, dated 2015):
pEC50, pIC50: −log10 of the molar value.

Legend:
CDK9/Cyclin T1 = target: T1, CDK9/Cyclin T1 (Homo sapiens, UniProt P50750); assay: CDK9 enzyme activity, LANCE ULight TR-FRET kinase assay; format: biochemical; settings: 1000 μM ATP, 4 nM CDK9/Cyclin T1, 30 minutes
T1 construct: purchased Carna Biosciences 04-110
Procedure: CDK9 enzyme activities were measured using LANCE ULight TR-FRET kinase assay reagents (PerkinElmer, Waltham, Mass.). Compounds were directly added in 100% DMSO to white low volume assay plates (Perkin Elmer Proxiplate 6008289) using a Labcyte Echo acoustic dispenser. Assay reagents in serine/threonine kinase assay buffer containing 20 mM HEPES, 10 mM MgCl2, 100 mM Na3VO4, and 0.0075% Triton X-100. were added for final reaction mixture concentrations of 1000 μM ATP, 100 nM U-light MBP peptide (Perkin Elmer TRF0109M) and reaction initiated with 4 nM CDK9/Cyclin T1 (Carna Biosciences 04-110). The kinase reaction was carried out for 30 minutes before addition of stopping buffer to a final of 20 mM EDTA and 0.5 nM of LANCE Ultra Europium anti-phospho-MBP antibody (PerkinElmer TRF0201M) in LANCE detection buffer (PerkinElmer CR97-100). The reaction was equilibrated for 1 hour and the signal read in the Perkin Elmer Envision in TR-FRET mode (excitation at 320 nm and emission at 615/665 nm).

H929 cells = assay: Cell viability assay (Cell TiterGlo), H929 cells; format: cell-based, human; settings: Homo sapiens, NCI-H929, 24 hours
Procedure: (§1) Cell viability assays were performed using A431 or H929 cells. A431 cells were seeded in 96-well plates at 10,000 cells/well, and after overnight incubation, treated with compounds at 2-times the final concentration to result in a dose response of 3-fold dilutions from 10 μM to 0.0005 μM (50 μL/well, 0.1% final DMSO concentration). H929 cells were seeded in 96-well plates at 10,000 cells/well and treated immediately with compounds as described above. After 24 hours at 37° C., cell viability was measured using Cell TiterGlo reagent (Promega) with a luminescence reader. Alternately, cell viability assays were performed in 384-well format. A431 cells were seeded in 384-well plates at 2500 cells/well and, after overnight incubation, treated with compounds in a dose response of 3-fold dilutions from 10 μM to 0.0005 μM ([…], 0.1% final DMSO concentration). For the H929 viability assay, […] of the compounds was dispensed into 384-well plates in a dose response as described above and cells were immediately seeded in 384-well plates at 2500 cells/well. After 24 hours at […], cell viability was measured using Cell TiterGlo reagent (Promega) with a luminescence reader.

A431 cells = assay: Cell viability assay (Cell TiterGlo), A431 cells; format: cell-based; settings: Homo sapiens, A-431, 24 hours
Procedure: as §1

T1 sequence (P50750 whole entry): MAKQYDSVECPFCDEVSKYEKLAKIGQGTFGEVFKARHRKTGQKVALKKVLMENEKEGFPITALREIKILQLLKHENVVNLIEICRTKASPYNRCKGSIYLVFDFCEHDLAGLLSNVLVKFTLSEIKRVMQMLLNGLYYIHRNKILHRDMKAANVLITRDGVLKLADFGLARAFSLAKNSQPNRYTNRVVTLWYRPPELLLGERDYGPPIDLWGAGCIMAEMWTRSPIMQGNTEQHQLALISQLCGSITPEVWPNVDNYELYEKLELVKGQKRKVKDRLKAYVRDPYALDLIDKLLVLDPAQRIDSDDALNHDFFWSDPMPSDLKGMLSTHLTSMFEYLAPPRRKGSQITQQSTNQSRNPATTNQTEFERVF
T1 sequence (O60563 whole entry partner): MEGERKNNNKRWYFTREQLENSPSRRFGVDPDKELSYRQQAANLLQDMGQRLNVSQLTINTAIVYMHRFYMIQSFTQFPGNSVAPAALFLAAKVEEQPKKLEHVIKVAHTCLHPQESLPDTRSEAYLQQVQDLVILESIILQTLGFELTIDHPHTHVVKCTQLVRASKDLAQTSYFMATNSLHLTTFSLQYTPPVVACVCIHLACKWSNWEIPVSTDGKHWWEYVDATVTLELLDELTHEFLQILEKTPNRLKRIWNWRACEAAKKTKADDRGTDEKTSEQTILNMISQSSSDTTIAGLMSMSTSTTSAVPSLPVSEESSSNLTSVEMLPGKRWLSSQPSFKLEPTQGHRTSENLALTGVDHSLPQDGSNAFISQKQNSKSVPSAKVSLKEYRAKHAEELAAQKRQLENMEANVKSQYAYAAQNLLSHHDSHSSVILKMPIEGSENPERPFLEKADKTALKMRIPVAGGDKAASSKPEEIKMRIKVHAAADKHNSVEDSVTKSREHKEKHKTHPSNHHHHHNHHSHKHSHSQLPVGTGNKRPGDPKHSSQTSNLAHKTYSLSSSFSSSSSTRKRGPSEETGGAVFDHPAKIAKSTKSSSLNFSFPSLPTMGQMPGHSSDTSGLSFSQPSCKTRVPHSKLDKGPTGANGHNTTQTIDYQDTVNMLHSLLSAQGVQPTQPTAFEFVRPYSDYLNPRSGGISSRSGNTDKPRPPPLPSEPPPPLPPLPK

SMILES: N#Cc1cn(Cc2ccccc2)c2cc(-c3ccnc4[nH]c(C5CCNCC5)cc34)ccc12 [Example 3, 1-benzyl-6-[2-(piperidin-4-yl)-1H-pyrrolo[2,3-b]pyridin-4-yl]-1H-indole-3-carbonitrile]
- pIC50 (CDK9/Cyclin T1): 7.62
- pEC50 (H929 cells): 7.10
- pEC50 (A431 cells): 7.62

SMILES: N#Cc1cn(Cc2cccc(F)c2)c2cc(-c3ccnc4[nH]c(C5CCNCC5)cc34)ccc12 [Example 8, 1-(3-fluorobenzyl)-6-[2-(piperidin-4-yl)-1H-pyrrolo[2,3-b]pyridin-4-yl]-1H-indole-3-carbonitrile]
- pIC50 (CDK9/Cyclin T1): 7.74
- pEC50 (H929 cells): 7.14
- pEC50 (A431 cells): 7.28

SMILES: Fc1cccc(Cn2ccc3cc(F)c(-c4ccnc5[nH]c(C6CCNCC6)cc45)cc32)c1 [Example 9, 4-[5-fluoro-1-(3-fluorobenzyl)-1H-indol-6-yl]-2-(piperidin-4-yl)-1H-pyrrolo[2,3-b]pyridine]
- pIC50 (CDK9/Cyclin T1): 7.30
- pEC50 (H929 cells): 7.00
- pEC50 (A431 cells): 6.96

SMILES: N#Cc1cn(Cc2cccc(F)c2)c2cc(-c3ccnc4[nH]c(C5CCN(CC(O)CO)CC5)cc34)ccc12 (stereo not drawn) [Example 10, 6-{2-[1-(2,3-dihydroxypropyl)piperidin-4-yl]-1H-pyrrolo[2,3-b]pyridin-4-yl}-1-(3-fluorobenzyl)-1H-indole-3-carbonitrile]
- pIC50 (CDK9/Cyclin T1): 7.74
- pEC50 (H929 cells): 7.28
- pEC50 (A431 cells): 7.15

SMILES: Fc1cncc(Cn2cnc3ccc(-c4ccnc5[nH]c(C6CCNCC6)cc45)cc32)c1 [Example 12, 1-[(5-fluoropyridin-3-yl)methyl]-6-[2-(piperidin-4-yl)-1H-pyrrolo[2,3-b]pyridin-4-yl]-1H-benzimidazole]
- pIC50 (CDK9/Cyclin T1): 7.52
- pEC50 (H929 cells): 7.12
- pEC50 (A431 cells): 6.89

SMILES: Fc1cccc(Cn2cnc3ccc(-c4ccnc5[nH]c(C6=CCNCC6)cc45)cc32)c1 [Example 14, 1-(3-fluorobenzyl)-6-[2-(1,2,3,6-tetrahydropyridin-4-yl)-1H-pyrrolo[2,3-b]pyridin-4-yl]-1H-benzimidazole]
- pIC50 (CDK9/Cyclin T1): 7.85
- pEC50 (H929 cells): 8.15
- pEC50 (A431 cells): 8.40

SMILES: CS(=O)(=O)N1CC=C(c2cc3c(-c4ccc5ncn(Cc6cccc(F)c6)c5c4)ccnc3[nH]2)CC1 [Example 15, 1-(3-fluorobenzyl)-6-{2-[1-(methylsulfonyl)-1,2,3,6-tetrahydropyridin-4-yl]-1H-pyrrolo[2,3-b]pyridin-4-yl}-1H-benzimidazole]
- pIC50 (CDK9/Cyclin T1): 7.37
- pEC50 (H929 cells): 8.15
- pEC50 (A431 cells): 8.22

SMILES: CNC(=O)N1CC=C(c2cc3c(-c4ccc5ncn(Cc6cccc(F)c6)c5c4)ccnc3[nH]2)CC1 [Example 24, 4-{4-[1-(3-fluorobenzyl)-1H-benzimidazol-6-yl}-1H-pyrrolo[2,3-b]pyridin-2-yl]-N-methyl-3,6-dihydropyridine-1(2H)-carboxamide]
- pIC50 (CDK9/Cyclin T1): 7.46
- pEC50 (H929 cells): 7.57
- pEC50 (A431 cells): 7.89

SMILES: OCC(O)CN1CC=C(c2cc3c(-c4ccc5ncn(Cc6cccc(F)c6)c5c4)ccnc3[nH]2)CC1 (stereo not drawn) [Example 25, 3-[4-{4-[1-(3-fluorobenzyl)-1H-benzimidazol-6-yl]-1H-pyrrolo[2,3-b]pyridin-2-yl}-3,6-dihydropyridin-1(2H)-yl]propane-1,2-diol]
- pIC50 (CDK9/Cyclin T1): 7.72
- pEC50 (H929 cells): 7.31
- pEC50 (A431 cells): 7.37

SMILES: CC(=O)Nc1ccc(CN2CC=C(c3cc4c(-c5ccc6ncn(Cc7cccc(F)c7)c6c5)ccnc4[nH]3)CC2)cc1 [Example 26, N-(4-{[4-{4-[1-(3-fluorobenzyl)-1H-benzimidazol-6-yl]-1H-pyrrolo[2,3-b]pyridin-2-yl}-3,6-dihydropyridin-1(2H)-yl]methyl}phenyl)acetamide]
- pIC50 (CDK9/Cyclin T1): 7.37
- pEC50 (H929 cells): 7.59
- pEC50 (A431 cells): 8.22

SMILES: Fc1cccc(Cn2ccc3ncc(-c4ccnc5[nH]c(C6CCNCC6)cc45)cc32)c1 [Example 29, 1-(3-fluorobenzyl)-6-[2-(piperidin-4-yl)-1H-pyrrolo[2,3-b]pyridin-4-yl]-1H-pyrrolo[3,2-b]pyridine]
- pIC50 (CDK9/Cyclin T1): 7.55
- pEC50 (H929 cells): 7.06
- pEC50 (A431 cells): 7.48
